Data from US10894087B2, “Multi-arm polymeric prodrug conjugates of cabazitaxel-based compounds” (Nektar Therapeutics, priority 2010, dated 2021).
Read-outs that look alike come from different tables or passages of the source.

System: H460 non-small cell lung cancer (NSCLC) implants
Conditions: for % TGD / MTV (Median Tumor Volume) / Median TTE (Median Time to Endpoint) / TGD (tumor growth delay compared to vehicle) / CR (Number of Complete Regressions) / PR (Number of Partial Regressions) / TFS (Number of Tumor Free Survivors): iv, qwk x 3; for CR (Number of Complete Regressions) / PR (Number of Partial Regressions) / TFS (Number of Tumor Free Survivors): N=10; for Complete regression, i.e., no detectable tumor (number of animals): through day 45, dose not given
Protocol: Purpose. Studies were conducted to assess the growth inhibitory effects of PEGylated-conjugates of cabazitaxel on H460 non-small cell lung cancer (NSCLC) implants in athymic nu/nu mice.
Experimental plan. These studies were conducted using routine methods and materials that are familiar to those skilled in the art. Briefly, 8 to 12 week old female nu/nu mice were injected subcutaneously in the flank with 1×10^7 H460 tumor cells in 0.2 mL sterile buffer. […] Animals received three intravenous doses of test article at one week intervals beginning on day 1. Cabazitaxel solutions were prepared in D5W containing 5% Tween 80:10% ethanol. PEG-cabazitaxel conjugates were prepared in D5W. The administration volume for all test articles was 10 mL/kg. The test doses were selected to represent the MTD and ½ the MTD for each test compound. The tables list the actual mg/kg for each test article and the corresponding cabazitaxel equivalent calculated based on the weight-percent cabazitaxel content for each PEGylated conjugate.
Animals were weighed on days 1-5, 7, 9, 11, 13 then biweekly until the end of the study. Tumor sizes were measured using calipers biweekly throughout the study and tumor volumes were calculated using the formula for an ellipsoid sphere: L×W^2/2=mm^3, where L and W are the major axis dimensions of the tumor in mm. Additional parameters that were monitored were the number of non-specific deaths, number of partial and complete tumor regressions, number of tumor-free survivors, and the time required for individual animals' tumors to reach 2000 mm^3. The median time for a tumor to reach 2000 mm^3 in the treatment groups (T) and control group (C) was used to calculate of the overall delay in the growth of the median tumor (TGD). Animals were monitored individually until reaching the experimental endpoint: tumor size of 2000 mm^3 or 45 days, whichever came first. […] When the study endpoint was reached, the animals were euthanized.

[1] = 20K conjugate xenograft study, 10 mg/kg cabazitaxel eq.
[2] = 20K conjugate xenograft study, 20 mg/kg cabazitaxel eq.
[3] = 30K and 40K conjugate xenograft study, 15 mg/kg cabazitaxel eq.
[4] = 30K and 40K conjugate xenograft study, 30 mg/kg cabazitaxel eq.
[5] = 30K and 40K conjugate xenograft study
[6] = 30K and 40K conjugate xenograft study, 10 mg/kg cabazitaxel eq.
[7] = 30K and 40K conjugate xenograft study, 20 mg/kg cabazitaxel eq.
[8] = 30K and 40K conjugate xenograft study, 6 mg/kg cabazitaxel eq.
[9] = 30K and 40K conjugate xenograft study, 12 mg/kg cabazitaxel eq.

Substance | % TGD [1] | MTV (Median Tumor Volume) [1] | Median TTE (Median Time to Endpoint) [1] | TGD (tumor growth delay compared to vehicle) [1] | CR (Number of Complete Regressions) [1] | PR (Number of Partial Regressions) [1] | TFS (Number of Tumor Free Survivors) [1] | % TGD [2] | MTV (Median Tumor Volume) [2] | TGD (tumor growth delay compared to vehicle) [2] | CR (Number of Complete Regressions) [2] | PR (Number of Partial Regressions) [2] | TFS (Number of Tumor Free Survivors) [2] | Complete regression, i.e., no detectable tumor (number of animals) [5] | % TGD [6] | Median TTE (Median Time to Endpoint) [6] | TGD (tumor growth delay compared to vehicle) [6] | CR (Number of Complete Regressions) [6] | PR (Number of Partial Regressions) [6] | TFS (Number of Tumor Free Survivors) [6] | also measured
4-ARM-PEG20K-Alaninate-Linked Cabazitaxel Conjugate [4-arm-PEG20K-CM-alanine-Cabazitaxel] | 93% | 908 mm^3 | 35.6 days | 17.1 days | 0 | 0 | 0 | 154% | 1470 mm^3 | 28.5 days | 0 | 0 | 0 |  |  |  |  |  |  |  | 
4-ARM-PEG20K-Glycinate-Linked Cabazitaxel Conjugate [4-arm-PEG20K-CM-glycine-Cabazitaxel] | 63% | 1200 mm^3 | 30.1 days | 11.6 days | 0 | 0 | 0 | 154% | 1183 mm^3 | 28.5 days | 0 | 4 | 0 |  |  |  |  |  |  |  | 
4-ARM-PEG40K-Glycinate-Linked Cabazitaxel Conjugate [4-arm-PEG40K-CM-glycine-Cabazitaxel] |  |  |  |  |  |  |  |  |  |  |  |  |  | one |  |  |  |  |  |  | % TGD [3]: 146%; MTV (Median Tumor Volume) [3]: 1632 mm^3; Median TTE (Median Time to Endpoint) [3]: 36.8 days; TGD (tumor growth delay compared to vehicle) [3]: 21.9 days; CR (Number of Complete Regressions) [3]: 0; PR (Number of Partial Regressions) [3]: 0; TFS (Number of Tumor Free Survivors) [3]: 0; % TGD [4]: 208%; MTV (Median Tumor Volume) [4]: 32 mm^3; TGD (tumor growth delay compared to vehicle) [4]: 31.1 days; CR (Number of Complete Regressions) [4]: 1; TFS (Number of Tumor Free Survivors) [4]: 1; PR (Number of Partial Regressions) (30K and 40K conjugate xenograft study, 30 mg/kg cabazitaxel eq., 30 mg/kg): 9; PR (Number of Partial Regressions) (30K and 40K conjugate xenograft study, 30 mg/kg cabazitaxel eq., listed as 4-arm-PEG40K-CM-glycine-cabazitaxel, 30 mg/kg): 10
4-ARM-PEG40K-Alaninate-Linked Cabazitaxel Conjugate [4-arm-PEG40K-CM-alanine-Cabazitaxel] |  |  |  |  |  |  |  |  |  |  |  |  |  | one | 101% | 30.1 days | 15.1 days | 0 | 0 | 0 | % TGD [7]: 208%; MTV (Median Tumor Volume) [7]: 184 mm^3; TGD (tumor growth delay compared to vehicle) [7]: 31.1 days; CR (Number of Complete Regressions) [7]: 1; PR (Number of Partial Regressions) [7]: 4; TFS (Number of Tumor Free Survivors) [7]: 1
4-ARM-PEG30K-Alaninate-Linked Cabazitaxel Conjugate [4-arm-PEG30K-CM-alanine-Cabazitaxel] |  |  |  |  |  |  |  |  |  |  |  |  |  |  |  |  |  |  |  |  | % TGD [8]: 39%; Median TTE (Median Time to Endpoint) [8]: 20.8 days; TGD (tumor growth delay compared to vehicle) [8]: 5.9 days; CR (Number of Complete Regressions) [8]: 0; PR (Number of Partial Regressions) [8]: 0; TFS (Number of Tumor Free Survivors) [8]: 0; % TGD [9]: 158%; MTV (Median Tumor Volume) [9]: 600 mm^3; Median TTE (Median Time to Endpoint) [9]: 38.6 days; TGD (tumor growth delay compared to vehicle) [9]: 23.6 days; CR (Number of Complete Regressions) [9]: 0; PR (Number of Partial Regressions) [9]: 0; TFS (Number of Tumor Free Survivors) [9]: 0
4-ARM-PEG30K-Glycinate-Linked Cabazitaxel Conjugate [4-arm-PEG30K-CM-glycine-Cabazitaxel] |  |  |  |  |  |  |  |  |  |  |  |  |  | one | 119% | 32.7 days | 17.8 days | 0 | 1 | 0 | MTV (Median Tumor Volume) [6]: 726 mm^3; % TGD [7]: 208%; MTV (Median Tumor Volume) [7]: 478 mm^3; TGD (tumor growth delay compared to vehicle) [7]: 31.1 days; CR (Number of Complete Regressions) [7]: 1; PR (Number of Partial Regressions) [7]: 6; TFS (Number of Tumor Free Survivors) [7]: 1
